Structures can show the parent of a compound that is named as a salt.
Each compound was assayed on von Bezold-Jarisch reflex evoked by 5-HT (assay: Antagonism of the von Bezold-Jarisch reflex evoked by 5-HT in the anesthetized rat). Details: iv, urethane-anesthetized male rats, submaximal 5-HT (usually 6 μg/kg i.v.), heart rate changes, read-out: ED50 (dose required to reduce the 5-HT-evoked response to 50% of the control response).
Assay type: in vivo
Method: Antagonism of the von Bezold-Jarisch reflex
The compounds were evaluated for antagonism of the von Bezold-Jarisch reflex evoked by 5-HT in the anesthetized rat according to the following method
Male rats 250-350 g, were anesthetized with urethane (1.25 g/kg intraperitoneally) and blood pressure and heart rate recorded as described by Fozard J. R. et al., J. Cardiovasc Pharmacol 2, 229-245 (1980). A submaximal dose of 5-HT (usually 6 μg/kg) was given repeatedly by the intravenous route and changes in heart rate quantified Compounds were given intravenously and the concentration required to reduce the 5-HT-evoked response to 50% of the control response (ED50) was then determined.

Compound | ED50 [µg/kg]
CCc1cc(C(=O)NC2CC3CCC(C2)N3C)c2ccccn12 (stereo not drawn) [Compound 2, (endo)-N-(8-Methyl-8-azabicyclo[3.2.1]oct-3-yl)-3-ethylindolizin-1-carboxamide] | 0.24
CN1C2CCC1CC(NC(=O)c1ccc3cccccc1-3)C2 (stereo not drawn) [Compound 17, (endo)-N-(8-Methyl-8-azabicyclo[3.2.1]octan-3-yl)azulene-1-carboxamide] | 13
CCc1nc(C(=O)NC2CC3CCC(C2)N3C)c2ccccn12 (stereo not drawn) [Compound 9, (endo)-N-(8-Methyl-8-azabicyclo[3,2,1]oct-3-yl)-3ethylimidazo[1,5-a]plyridin-1-carboxamide] | 1
CN1C2CCC1CC(NC(=O)C1=CC(C)(C)c3ccccc31)C2 (stereo not drawn) [Compound 13, (endo)-N-(8-Methyl-8-azabicyclo[3.2.11]octan-3-yl)-3,3-dimethylindene-1-carboxamide monohydrochloride] | 1.1
CCc1nc(C(=O)NC2CC3CCCC(C2)N3C)c2ccccn12 (centres unmarked) [Compound 8] | 0.5

From patent US4882327A, “Certain heterocyclic N-substituted carboxamides” (Beecham Group p.l.c., priority 1987, dated 1989)
